Measurements from patent US20070110716A1, “Relationship of a specific metabolite to insulin resistance” (priority 2003, published 2007).

Experiments:
L6 myocytes = test: Acylcarnitine and ketone accumulation in L6 myocytes exposed to high FA; assay type: cell-based, rat; settings: co-administration
Description: Cell culture. Early passages of rat L6 myoblasts (ATCC CRL-1458) from the American Tissue Culture Collection (Rockville, Md.) were grown in Dulbecco's Modified Eagle Medium (DMEM) with 10% Fetal Bovine Serum, 4.0 mM glutamine, and […] gentamycin, in a humidified incubator at 37° C., 5% CO2. Myoblasts were grown on 100 mm dishes to 50-60% confluence and then subcultured onto 6 and 24-well collagen-coated plates for experiments. When cells were 70% confluent, they were induced to differentiate into myotubes by changing to low-serum DFM (DMEM, 2% horse-serum, 4.0 mM glutamine, […] gentamycin). […]
Substrate Metabolism. […] Briefly, the production of [^14C]-labeled [^14C]CO2 (complete oxidation) was measured and where appropriate, [^14C]-labeled ASM, a measure of TCA cycle intermediates and acylcarnitine esters and ketones (incomplete oxidation) was measured, using a modified 48-well microtiter plate (Kim, et al. (2002) Am. J. Physiol. Endocrinol. Metab. 282:E1014-El022). […] Radioactivity was determined by scintillation counting. […] Rates of ketone production were determined by treating media and tissue lysates with sodium borodeuteride, thereby producing ketoacids labeled with deuterium. Trimethylsilyated extracts spiked with internal standards were analyzed by GC/MS, permitting determination of βHB and AcAc in a single analysis. […]

Akt = test: Insulin-stimulated phosphorylation of Akt in L6 myotubes exposed to high FA; assay type: cell-based, rat; settings: 24 h exposure to high FA
Description: The model predicts that the development of insulin resistance requires FA uptake into muscle mitochondria and subsequent β-oxidation. To test this model, signaling experiments were performed in which mitochondrial FA metabolism was inhibited by carnitine deficiency or etomoxir.

Structure (SMILES)	Accumulation of lipid metabolites (acylcarnitines, βHB-carnitine, free ketones, C2) (L6 myocytes)	Lipid-induced insulin resistance (insulin-stimulated phosphorylation of Akt) (Akt)
CCOC(=O)[C@@]1(CCCCCCOc2ccc(Cl)cc2)CO1 [etomoxir]	prevented	at least partly protected
C[N+](C)(C)CC(O)CC(=O)[O-] (stereo not drawn) [carnitine]	–	exacerbated lipid-induced insulin resistance in a dose-dependent manner
